# pEC50: −log10 of the molar value.
# Tested on: whole cells (NMuLi, C2Cl2, and L6 cells, isolated cardiomyocytes, human primary fibroblasts)
# Experiment: Oxygen consumption rate (OCR) in whole cells, Seahorse XF-24 Flux Analyzer
# Format: cell-based
# Conditions: cell type for Table 1 not stated, read-out: OCR Activity (increase in OCR), binned EC50
# Procedure: Biological activities of the compounds synthesized is determined by determining increase in oxygen consumption rate (OCR).
# Oxygen consumption rate (OCR) in whole cells is measured in general accordance with the method of Kenwood B M et al. (Mol. Met. (2014) 3: 114-123).
# OCR is measured using a Seahorse XF-24 Flux Analyzer (Seahorse Biosciences, North Billerica, Mass.). NMuLi, C2Cl2, and L6 cells are seeded in a Seahorse 24-well tissue culture plate at a density of 3.5×10^4 cells/well, isolated cardiomyocytes at a density of 4×10^4 cells/well, and human primary fibroblasts at a density of 1.1×10^4 cells/well. The cells are then allowed to adhere for 24 h. Prior to the assay, the media is changed to unbuffered DMEM containing pyruvate and glutamine (Gibco #12800-017, pH=7.4 at 37° C.) and the cells are equilibrated for 30 mins at 37° C. Compounds are injected during the assay and OCR is measured using 2 min measurement periods.
# 2-3 wells are used per condition and averaged over three plates (n=6-9). Statistical significance is determined by two-way ANOVA with Bonfenoni's posttest.
# Activities are reported as binned EC50 values: A=5 μM or less; B=>5 to 20 μM; C=over 20 μM; NA=no effect.
row,Structure (SMILES),pEC50
1,"COc1nc2[nH]c(C(F)(F)F)nc2nc1Nc1ccc(OC(F)(F)F)cc1F [Compound 2-21, 6-methoxy-N-(2-fluoro-4-(trifluoromethoxy)phenyl)-2-(trifluoromethyl)-1H-imidazo[4,5-b]pyrazin-5-amine]",≥ 5.30
2,"FC(F)(F)c1ccc(Nc2nc3[nH]c(C(F)(F)F)nc3nc2Oc2ccc(C(F)(F)F)cc2)cc1 [Compound 2-47, 2-(trifluoromethyl)-5-(4-(trifluoromethyl)phenoxy)-N-(4-(trifluoromethyl)phenyl)-1H-imidazo[4,5-b]pyrazin-6-amine]",≥ 5.30
3,"COc1nc2nc(C(F)(F)F)[nH]c2nc1N(C)c1ccc(C(F)(F)F)cc1 [Compound 2-49, 5-methoxy-N-methyl-2-(trifluoromethyl)-N-(4-(trifluoromethyl)phenyl)-1H-imidazo[4,5-b]pyrazin-6-amine]",≥ 5.30
4,"Oc1nc2[nH]c(C(F)(F)F)nc2nc1Nc1cccc(C(F)(F)F)c1F [Compound 2-54, 5-((2-fluoro-3-(trifluoromethyl)phenyl)amino)-2-(trifluoromethyl)-1H-imidazo[4,5-b]pyrazin-6-ol]",< 4.70
5,"Oc1nc2[nH]c(C(F)(F)F)nc2nc1Nc1ccc(C(F)(F)F)cc1 [Compound 2-55, 5-((4-(trifluoromethyl)phenyl)amino)-2-(trifluoromethyl)-1H-imidazo[4,5-b]pyrazin-6-ol]",< 4.70
6,"COc1nc2[nH]c(-c3ccccc3)nc2nc1Nc1ccc(OC(F)(F)F)cc1 [Compound 2-60, 6-methoxy-2-phenyl-N-(4-(trifluoromethoxy)phenyl)-1H-imidazo[4,5-b]pyrazin-5-amine]",< 4.70
7,"COc1nc2nc(C(F)(F)F)[nH]c2cc1Nc1ccccc1F [Compound 2-61, N-(2-fluorophenyl)-5-methoxy-2-(trifluoromethyl)-1H-imidazo[4,5-b]pyridin-6-amine]",< 4.70
8,"COc1nc2nc(C(F)(F)F)[nH]c2cc1Nc1ccc(OC(F)(F)F)cc1 [Compound 2-62, 5-methoxy-N-(4-(trifluoromethoxy)phenyl)-2-(trifluoromethyl)-1H-imidazo[4,5-b]pyridin-6-amine]",4.70 to 5.30
9,"COc1nc2nc(C(F)(F)F)[nH]c2cc1Nc1cccc(OC(F)(F)F)c1 [Compound 2-63, 5-methoxy-N-(3-(trifluoromethoxy)phenyl)-2-(trifluoromethyl)-1H-imidazo[4,5-b]pyridin-6-amine]",< 4.70
10,"COc1nc2nc(C(F)(F)F)[nH]c2cc1Nc1ccc(C(F)(F)F)cc1 [Compound 2-64, 5-methoxy-2-(trifluoromethyl)-N-(4-(trifluoromethyl)phenyl)-1H-imidazo[4,5-b]pyridin-6-amine]",4.70 to 5.30
11,"COc1nc2nc(C(F)(F)F)[nH]c2cc1Nc1cccc(C(F)(F)F)c1 [Compound 2-65, 5-methoxy-2-(trifluoromethyl)-N-(3-(trifluoromethyl)phenyl)-1H-imidazo[4,5-b]pyridin-6-amine]",< 4.70
12,"COc1nc2nc(C(F)(F)F)[nH]c2cc1Nc1ccc(OC(F)(F)F)cc1F [Compound 2-66, N-(2-fluoro-4-(trifluoromethoxy)phenyl)-5-methoxy-2-(trifluoromethyl)-1H-imidazo[4,5-b]pyridin-6-amine]",≥ 5.30
13,"COc1nc2[nH]c(C(F)(F)F)nc2cc1Nc1cccc(F)c1 [Compound 2-67, N-(3-fluorophenyl)-5-methoxy-2-(trifluoromethyl)-3H-imidazo[4,5-b]pyridin-6-amine]",4.70 to 5.30
14,"COc1nc2[nH]c(C(F)(F)F)nc2cc1Nc1cccc(F)c1F [Compound 2-68, N-(2,3-Difluorophenyl)-5-methoxy-2-(trifluoromethyl)-3H-imidazo[4,5-b]pyridin-6-amine]",4.70 to 5.30
15,"COc1ccc(Nc2cc3nc(C(F)(F)F)[nH]c3nc2OC)cc1 [Compound 2-69, 5-methoxy-N-(4-methoxyphenyl)-2-(trifluoromethyl)-3H-imidazo[4,5-b]pyridin-6-amine]",≥ 5.30
16,"COc1nc2[nH]c(C(F)(F)F)nc2cc1Nc1cccc(C(C)(C)C)c1 [Compound 2-70, N-(3-(tert-butyl)phenyl)-5-methoxy-2-(trifluoromethyl)-3H-imidazo[4,5-b]pyridin-6-amine]",< 4.70
17,"COc1nc2[nH]c(C(F)(F)F)nc2cc1Nc1cc(C(F)(F)F)cc(C(F)(F)F)c1 [Compound 2-72, N-(3,5-bis(trifluoromethyl)phenyl)-5-methoxy-2-(trifluoromethyl)-3H-imidazo[4,5-b]pyridin-6-amine]",4.70 to 5.30
18,"COc1nc2[nH]c(C(F)(F)F)nc2cc1Nc1ccc(C)cc1 [Compound 2-73, 5-methoxy-N-(p-tolyl)-2-(trifluoromethyl)-3H-imidazo[4,5-b]pyridin-6-amine]",< 4.70
19,"COc1nc2[nH]c(C(F)(F)F)nc2cc1Nc1ccc(OC(F)(F)F)cc1C [Compound 2-74, 5-methoxy-N-(2-methyl-4-(trifluoromethoxy)phenyl)-2-(trifluoromethyl)-3H-imidazo[4,5-b]pyridin-6-amine]",≥ 5.30
20,"COc1nc2nc(C(F)(F)F)[nH]c2cc1Nc1ccc(-c2ccc(C(F)(F)F)nc2)cc1 [Compound 2-75, 5-methoxy-2-(trifluoromethyl)-N-(4-(6-(trifluoromethyl)pyridin-3-yl)phenyl)-1H-imidazo[4,5-b]pyridin-6-amine]",4.70 to 5.30
21,"Oc1nc2nc(-c3cccc(F)c3)oc2nc1Nc1ccccc1F [Compound 4-3, 2-(3-fluorophenyl)-6-((2-fluorophenyl)amino)oxazolo[4,5-b]pyrazin-5-ol]",4.70 to 5.30
22,"Oc1nc2nc(-c3cccc(F)c3)oc2nc1Nc1cc(C(F)(F)F)cc(C(F)(F)F)c1 [Compound 4-5, 6-((3,5-bis(trifluoromethyl)phenyl)amino)-2-(3-fluorophenyl)oxazolo[4,5-b]pyrazin-5-ol]",4.70 to 5.30

# Tested on: Male C57BL/6J mice on western diet
# Experiment: Diet induced obesity mouse study
# Format: in vivo
# Conditions: WD containing 2-21, ~40 mg/kg/day, after 28 days of WD
# From the text: FIG. 1. Diet induced obesity reversal data, for mice given a regular chow diet, a Western diet, or a Western diet plus compound 2-21. FIG. 1A, Body mass versus time; FIG. 1B, fat mass (measured by EchoMRI) versus time; FIG. 1C, food intake (last 14 days) versus time.
# Male C57BL/6J mice aged 3 months were assigned to either normal chow diet (Chow, n=5) or western diet (WD, n=10) for 28 days. After 28 days half of the WD group were switched to WD containing compound 2-21 at a concentration resulting in consumption of ˜40 mg/kg/day 1-112 (2-21 40 mpk). Body mass (A), fat mass (measured by EchoMRI (B)), and food intake (C. for the final 14 days) were recorded as indicated.
Structure (SMILES),Body mass,Fat mass (measured by EchoMRI)
"COc1nc2[nH]c(C(F)(F)F)nc2nc1Nc1ccc(OC(F)(F)F)cc1F [Compound 2-21, 6-methoxy-N-(2-fluoro-4-(trifluoromethoxy)phenyl)-2-(trifluoromethyl)-1H-imidazo[4,5-b]pyrazin-5-amine]",lost body weight,lost body weight and fat mass

# Same assay, conditions: WD containing 2-21, ~40 mg/kg/day; final 14 days
row,Structure (SMILES),Food intake
1,"COc1nc2[nH]c(C(F)(F)F)nc2nc1Nc1ccc(OC(F)(F)F)cc1F [Compound 2-21, 6-methoxy-N-(2-fluoro-4-(trifluoromethoxy)phenyl)-2-(trifluoromethyl)-1H-imidazo[4,5-b]pyrazin-5-amine]",without a significant change in food intake
